Earlier results as cited in patent US20030143266A1, “Cationic amphiphile micellar complexes” (GENZYME CORPORATION, priority 1999, published 2003).

System: airway epithelial cells
Settings: shown by elevation of cGMP levels, CFTR-dependent chloride transport, ciliary beat frequency

Substance: CNP-22: C-type natriuretic peptide containing 22 amino acid; binds and activates guanylate cyclase-B receptor
- binding to airway epithelial cells in vivo: Specific binding
